The values that follow come from patent US20230087118A1, “IMIDAZO[1,2-a][sequence] DERIVATIVES AND THEIR USE IN THE TREATMENT OF DISEASE” (priority 2019, published 2023).

Structures can show the parent of a compound that is named as a salt.

One may read the IC50 as the concentration at which inhibition is half-maximal. High values mean lower potency, low ones higher potency.

One test addresses T1, IRAK4 (Homo sapiens, UniProt Q9NWZ3).
T1 sequence (Q9NWZ3 1-460): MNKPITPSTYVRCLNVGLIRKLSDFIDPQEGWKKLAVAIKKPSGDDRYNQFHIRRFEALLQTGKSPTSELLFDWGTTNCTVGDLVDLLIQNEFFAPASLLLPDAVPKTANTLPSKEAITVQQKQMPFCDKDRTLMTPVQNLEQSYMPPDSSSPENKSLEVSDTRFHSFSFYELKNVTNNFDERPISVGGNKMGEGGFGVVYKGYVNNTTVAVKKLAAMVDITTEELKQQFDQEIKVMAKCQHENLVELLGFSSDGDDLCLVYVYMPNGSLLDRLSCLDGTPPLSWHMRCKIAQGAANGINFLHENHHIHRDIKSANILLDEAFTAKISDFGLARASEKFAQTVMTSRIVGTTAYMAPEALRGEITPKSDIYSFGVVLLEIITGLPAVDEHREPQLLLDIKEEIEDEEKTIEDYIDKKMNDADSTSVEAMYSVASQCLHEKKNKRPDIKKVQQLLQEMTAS
The test can be described thus: biochemical.
Details: not given
Consider `CC12CCC(c3cn4cc(C(=O)Nc5cnn6cccnc56)c(OC5CC5)cc4n3)(CO1)C2` (centres unmarked) [Example 554], for which 0.0008 µM corresponded to half-maximal inhibition (IC50). This lies in the sub-nanomolar range.
On the same count and under the same terms, as for `CC(C)Oc1nc2nc(C34COC(CF)(C3)C4)cn2cc1C(=O)Nc1cnn2cccnc12` [Example 563, 2-(1-(Fluoromethyl)-2-oxabicyclo[2.1.1]hexan-4-yl)-7-isopropoxy-N-(pyrazolo[1,5-a]pyrimidin-3-yl)imidazo[1,2-a]pyrimidine-6-carboxamide], the figure is 0.0005 µM.
The compound `COc1cc2nc(C3CCOCC3)cn2cc1C(=O)Nc1ccn(CCF)n1` [Example 190] registered an IC50 of 0.111 µM. Compared with the last compound, the IC50 is about 220-fold higher.
Compound `CC(C)Oc1ncccc1NC(=O)c1cn2cc(C34CCC(C)(C3)OC4)nc2cc1OC1CCC1` (centres unmarked) [Example 539, 7-Cyclobutoxy-N-(2-isopropoxypyridin-3-yl)-2-(1-methyl-2-oxabicyclo[2.2.1]heptan-4-yl)imidazo[1,2-a]pyridine-6-carboxamide] came in with a concentration for half-maximal inhibition (IC50) of 0.0229 µM.
As to `CC(C)Oc1cc2nc(C34COC(C)(C3)C4)cn2cc1C(=O)Nc1cc(C#N)cn(C)c1=O` [Example 262, N-(5-cyano-1-methyl-2-oxo-1,2-dihydropyridin-3-yl)-7-isopropoxy-2-(1-methyl-2-oxabicyclo[2.1.1]hexan-4-yl)imidazo[1,2-a]pyridine-6-carboxamide], the half-inhibitory concentration (IC50) came out at 0.028 µM.
As for `Cn1ccc(NC(=O)c2cn3cc(C45COC(C)(C4)C5)nc3cc2OC2CCCC2)n1` [Example 449, 7-(Cyclopentyloxy)-N-(1-methyl-1H-pyrazol-3-yl)-2-(1-methyl-2-oxabicyclo[2.1.1]hexan-4-yl)imidazo[1,2-a]pyridine-6-carboxamide], it took 0.0015 µM to reach half-maximal inhibition (IC50).
`CC(C)Oc1cc2nc(C34COC(C)(C3)C4)cn2cc1C(=O)Nc1cnn2cc(C3CC3)cnc12` [Example 322, N-(6-cyclopropylpyrazolo[1,5-a]pyrimidin-3-yl)-7-isopropoxy-2-(1-methyl-2-oxabicyclo[2.1.1]hexan-4-yl)imidazo[1,2-a]pyridine-6-carboxamide] returned a 50% inhibitory concentration (IC50) of 0.0019 µM.
The same measure, in the same setting: as for `Cn1ccc(NC(=O)c2cn3cc([C@]45CC[C@](C)(C4)OC5)nc3nc2OC2CCCC2)n1` (single isomer, unassigned) [Example 636], the figure is 0.0037 µM.
Still for that read-out and setting: as for `Cn1cccc(NC(=O)c2cn3cc(C45CCC(C)(CC4)OC5)nc3cc2OC2CCC2)c1=O` [Example 421, 7-Cyclobutoxy-N-(1-methyl-2-oxo-1,2-dihydropyridin-3-yl)-2-(1-methyl-2-oxabicyclo[2.2.2]octan-4-yl)imidazo[1,2-a]pyridine-6-carboxamide], the figure is 0.0002 µM; as for `CC(C)Oc1nc2nc(C34COC(C)(C3)C4)cn2cc1C(=O)Nc1ccn2nccc2n1` [Example 372, 7-Isopropoxy-2-(1-methyl-2-oxabicyclo[2.1.1]hexan-4-yl)-N-(pyrazolo[1,5-a]pyrimidin-5-yl)imidazo[1,2-a]pyrimidine-6-carboxamide], 0.0576 µM; as for `CCOc1nc(C(=O)Nc2cccc(F)c2OC)cn2cc(C34COC(C)(C3)C4)nc12` [Example 487, 8-Ethoxy-N-(3-fluoro-2-methoxyphenyl)-2-(1-methyl-2-oxabicyclo[2.1.1]hexan-4-yl)imidazo[1,2-a]pyrazine-6-carboxamide], 0.0027 µM.

The test is the same for the next values; noted with them: IRAK4 Biochemical Assay (1 mM ATP, 2 h) IC50 (μM), 1 mM ATP, 2 h, 100 pM IRAK4.
For `CCc1cccc(NC(=O)c2cn3cc(C4CCOCC4)nc3cc2OC)n1` [Example 59], the 50% inhibitory concentration (IC50) was 0.0137 µM.
Still for that read-out and setting: under `CC(C)Oc1cc2nc(C3CCOCC3)cn2cc1C(=O)Nc1cccc(C(F)F)n1` [Example 92, N-(6-(difluoromethyl)pyridin-2-yl)-7-isopropoxy-2-(tetrahydro-2H-pyran-4-yl)imidazo[1,2-a]pyridine-6-carboxamide] stands 0.0003 µM; under `CC(C)Oc1nc2nc(C34COC(C)(C3)C4)cn2cc1C(=O)Nc1cccc2c1OCC2` [Example 377, N-(2,3-dihydrobenzofuran-7-yl)-7-isopropoxy-2-(1-methyl-2-oxabicyclo[2.1.1]hexan-4-yl)imidazo[1,2-a]pyrimidine-6-carboxamide trifluoroacetate], 0.0003 µM.
